Counter-ions that a name gives are not always drawn.
Columns and labels:
[1] = Aqueous solubility determined gravimetrically by slurrying in water; assay type: physicochemical
Method: Aqueous solubility was determined gravimetrically by slurrying Eliglustat hydrochloride from example 1 in water at 22°C. The pH of Eliglustat HCl in water was 7.6. A filtered aliquot was transferred to a pre-weighed vial and the solution evaporated.

[2] = Storage stability of the crystalline form, XRPD analysis after storage; assay type: physicochemical; settings: stored for one week at 40°C / 75% relative humidity
Method: XRPD analyses were performed on crystalline eliglustat hydrochloride from example 1 using a Panalytical Xpert Pro diffractometer equipped with a Cu X-ray tube and a Pixcel detector system. The isothermal samples were analysed in transmission mode and held between low density polyethylene films. The following XRPD program was used: range 3-40°2θ, step size 0.013°, counting time 99sec, ∼22min run time.
Crystalline eliglustat hydrochloride from example 1 was stored for one week at 40°C / 75% relative humidity.

CCCCCCCC(=O)N[C@H](CN1CCCC1)[C@H](O)c1ccc2c(c1)OCCO2 [Eliglustat hydrochloride, (1R,2R)-octanoic acid[2-(2',3'-dihydro-benzo[1,4]dioxin-6'-yl)-2-hydroxy-1-pyrrolidin-1-ylmethyl-ethyl]-amide]
solubility ([1]; pH 7.6, thermodynamic from solid, water, 22°C, gravimetric, pH in water 7.6): 33 mg/mL | pH of Eliglustat HCl in water ([1]; slurry in water at 22°C): 7.6 | stability of crystalline form after storage (XRPD) [2]: remained stable with regard to its crystalline form

Reference: EP3283483B1, “CRYSTALLINE ELIGLUSTAT HYDROCHLORIDE” (Sandoz AG, priority 2015, dated 2016)
